Series [1] is described as follows: clinical. The note with it: human, in vivo.
In series [2] the test system is IL-23 and IL-1β-induced IL-17A secretion in whole blood. As to the kind of experiment: Rat whole blood assay ex vivo after oral dosing, IL-17A ELISA. The format is in vivo, Sprague-Dawley rats. Conditions: for inhibition of IL-23 and IL-1β-induced IL-17A secretion in whole blood: p.o., blood 2 h after dosing; for IC50: orally dosed rats, read-out: dilution-adjusted ex vivo IC50. The text has this: A rat whole blood assay was used to evaluate the systemic pharmacologic activity of the orally administered peptide of SEQ ID NO: 1. After oral dosing Sprague-Dawley rats with the peptide of SEQ ID NO: 1, blood was drawn from the rats and stimulated ex-vivo with rat IL-23 plus IL-1β. An ELISA assay was used to measure the presence of IL-17A. The production of IL-17A is expected to be suppressed if IL-23 is inhibited. This assay confirms that systemic exposure of orally dosed peptide of SEQ ID NO: 1 is associated with systemic activity, as measured by lower IL-17A production.
Two or six hours after dosing, animals were euthanized and blood collected as described based on the following.
For determination of peptide concentration, an aliquot of blood from peptide-treated rats was deposited into K2EDTA microtainer tubes and processed to plasma by centrifugation at 16,100×g for 5 minutes. Plasma was deposited into 5% volume of protease inhibitor (1 cocktail tablet dissolved in 2 mL PBS without Ca^++ and Mg^++) and stored at −80° C. for bioanalysis of test article by LCMS. The remainder of each blood sample was separately diluted in pre-warmed RPMI-1640 (with glutamine and HEPES) at a ratio of one part blood to four parts medium. The diluted blood was mixed by pipetting and kept at room temperature while working stocks of rat IL-23 and IL-1β were prepared in RPMI-1640. The blood was mixed again and 240 μL was pipetted per well into 96-well, round-bottom assay plates, followed by IL-23 and IL-1β stimulation as described below.
A total of 10 μL of medium supplemented with IL-23 and IL-1β or IL-1β alone was added to each well of diluted blood such that the final concentration of IL-23 was 100, 20, or 4 ng/mL and the final concentration of IL-1β was 4 ng/mL. The assay plates were incubated at 37° C. in 5% CO2. After ˜24 hours, the assay plates were centrifuged at 1,300 rpm for 6 minutes at room temperature, and at least 100 μL of cell culture supernatant were collected into 96-well, V-bottom plates. The plates containing supernatants were sealed and placed on ice for immediate measurement of IL-17A or frozen at −80° C.
To measure IL-17A in cell culture supernatants, the thawed supernatants were centrifuged at 1,300 rpm for 10 minutes at 4° C. A total of 20 μL of cell culture supernatant was mixed with 80 μL of NS buffer (provided with the rat IL-17A ELISA kit). The diluted samples as well as a freshly prepared serial titration of rat IL-17A (for standard curve) were combined with affinity tag labeled capture and reporter conjugated detector antibodies in 96-well plates (provided with the rat IL-17A ELISA kit). Following a 1-hour incubation at room temperature with shaking, each well was washed 3 times with 350 μL/well wash buffer. After the final wash, the plates were inverted and blotted to remove excess liquid. The plates were developed with TMB substrate for 10 minutes, protected from light, with shaking. After stopping the colorimetric reaction, the absorbance in individual wells was read at 450 nm using a SpectraMax 340PC plate reader.
A standard curve was generated in duplicate for each ELISA plate. The standard curve data were analyzed with a four-parameter curve fit with 1/y^2 weighting using SoftMax Pro software. Supernatant IL-17A levels were interpolated or extrapolated from plate-specific standard curves using non-background subtracted optical density at 450 nm (OD450) values in SoftMax Pro and corrected for the dilution factor used in the ELISA assay in Microsoft Excel.
On the technique in general: In an ELISA, binding on a coated surface is turned into a signal by an enzyme label.

Series [3] deals with IL-23 induced phosphorylation of STAT3. Briefly: Ex vivo whole blood phosphorylation of STAT3 assay, FIH 25 mg MAD cohort. The note with it: human, 25 mg oral once a day, 3 subjects, 100 ng/mL IL-23. The format is in vivo. As for the experimental part: An ex vivo whole blood IL-23 induced STAT3 phosphorylation assay was also used to evaluate the systemic pharmacodynamic activity of the orally administered peptide of SEQ ID NO: 1 in the first-in-human study. This proximal IL-23R signaling assay was performed by analyzing IL-23 induced phosphorylation of STAT3 using a flow cytometer. Assay was implemented in the 25 mg MAD cohort, at multiple timepoints on Day 1 and Day 10, where healthy volunteers were given placebo or 25 mg of peptide of SEQ ID NO: 1 orally once a day for 10 consecutive days. On Days 1 and 10, when the assay was performed, subjects received their dose of placebo or peptide of SEQ ID NO: 1 following an overnight fast of approximately 10 hours and remained fasted for approximately 4 hours following dosing. […] Therefore, lower STAT3 phosphorylation as readout by the assay is associated with sufficient exposure to achieve systemic pharmacodynamic activity of orally dosed peptide of SEQ ID NO: 1. Since there is no dilution of blood required, and the readout is more proximal than IFNγ production, and the response is measured in the specific subset of immune cells that respond to IL-23, the pSTAT3 assay is a more sensitive pharmacodynamic readout than IFNγ. […]

For series [4] the following is noted: in vivo.

For orientation: half-life means the time in which the quantity being followed falls by half. Low values mean rapid decline, high ones slow decline. What is called AUC is concentration integrated over time. A higher AUC goes with high exposure. What is called Cmax is the maximum level reached in the sampled fluid or tissue. Usually Tmax stands for the time from dosing to the highest level. In general, IC50 refers to the point on the concentration scale where inhibition reaches its midpoint.

Like-named read-outs stand apart in the source and are kept apart here.

In the case of `CC(=O)NCCCC[C@@H]1NC(=O)[C@H](Cc2c[nH]c3c(C)cccc23)NC(=O)[C@H]([C@@H](C)O)NC(=O)[C@H](CC(N)=O)NC(=O)[C@@H](NC(C)=O)C(C)(C)SSC(C)(C)[C@@H](C(=O)N[C@@H](Cc2ccc(OCCN)cc2)C(=O)N[C@@H](Cc2ccc3ccccc3c2)C(=O)NC2(C(=O)N[C@@H](CCC(=O)O)C(=O)N[C@@H](CC(N)=O)C(=O)N[C@@H](Cc3cccnc3)C(=O)N(C)CC(N)=O)CCOCC2)NC1=O` [SEQ ID NO: 1, Ac-[Pen]*—N-T-[W(7-Me)]-[Lys(Ac)]-[Pen]*-Phe[4-(2-aminoethoxy)]-[2-Nal]-[THP]-E-N-[3-Pal]-Sarc-NH2], the half-life is 10 to 12 h in series [1] and 9.28 h in series [1] (po, 300 mg). Moreover, the AUC in series [1] (po, 10 mg) was found to be 1.56 ng·h/mL; in series [1] (po, 25 mg), 6.47 ng·h/mL; in series [1] (po, 100 mg) it was 20.8 ng·h/mL; in series [1] (po, 300 mg), 51 ng·h/mL; in series [1] (po, 1000 mg), 141 ng·h/mL. For the same compound, the Cmax in series [1] (po, 1000 mg) worked out at 8.3 ng/mL. Moreover, the Tmax in series [1] (po, 1000 mg) was 4.5 h. The “median IL-17A production relative to vehicle control” value in series [2] (10 mg/kg p.o., 2 hours post-dosing, 100, 20, or 4 ng/mL IL-23 and 4 ng/mL IL-1β) was “significantly reduced”. Further, the “median IL-17A levels” value in series [2] (10 mg/kg p.o., 6 hours post-dosing, 4 ng/mL IL-23) is on record as “significant decrease”. In series [2] (10 mg/kg p.o., 6 hours post-dosing, 100 and 20 ng/mL IL-23 and IL-1β), the “effect on ex vivo IL-17A response” value is given as “no significant effect”. Besides, the “inhibition of IL-23 and IL-1β-induced IL-17A secretion in whole blood” value in series [2] (0.03-100 mg/kg) is “dose-dependent inhibition”; in series [2] (doses of 1 mg/kg or lower), “limited effect”; in series [2] (doses of 30 and 100 mg/kg), “complete or nearly complete inhibition”. Moreover, the values for the IC50 in series [2] (blood challenged with 4 ng/mL IL-23 plus 4 ng/mL IL-1β) and in series [2] (blood challenged with 20 ng/mL IL-23 plus 4 ng/mL IL-1β) were 0.032 nM and 0.27 nM, respectively. For the same compound, the “inhibition of STAT3 phosphorylation in memory CD26high CD4+ T cells, memory CD26high CD8+ T cells and CD26high NKT cells” value in series [3] is recorded as “near-complete inhibition”. Further, the “mean accumulation for AUC” value in series [4] (human) is recorded as 13-50%. Further, the “Systemic exposure (Cmax and AUC) versus dose” value in series [4] is on record as “approximately dose-proportional”.

The values are drawn from patent publication US11939361B2, “Compositions of peptide inhibitors of Interleukin-23 receptor” (Janssen Pharmaceutica NV, priority 2020, dated 2024).
